Results as given in paper PMC5116675, “The lectin-like protein 1 in Lactobacillus rhamnosus GR-1 mediates tissue-specific adherence to vaginal epithelium and inhibits urogenital pathogens” (Scientific Reports, 2016).

What was measured:
[1] = target: T1, lectin domain of LGR1_Llp1 (lectin-like protein 1) (Lacticaseibacillus rhamnosus, UniProt T1SH75); assay: mammalian glycan array v5.[…] (CFG), FITC-labelled lectin domain; type: binding; conditions: glycan immobilised on NHS-activated glass slide through amino linker
T1 construct: gene E6L36_12050; N-terminal L-type lectin domain (PF00139, ca. 250 residues) with 22 amino acids extension, N-His6 tag (pET28a, pCMPG10775), from E. coli BL21(DE3); full protein 680 residues; FITC-labelled for glycan array
T1 sequence (T1SH75 31-352 limits assumed): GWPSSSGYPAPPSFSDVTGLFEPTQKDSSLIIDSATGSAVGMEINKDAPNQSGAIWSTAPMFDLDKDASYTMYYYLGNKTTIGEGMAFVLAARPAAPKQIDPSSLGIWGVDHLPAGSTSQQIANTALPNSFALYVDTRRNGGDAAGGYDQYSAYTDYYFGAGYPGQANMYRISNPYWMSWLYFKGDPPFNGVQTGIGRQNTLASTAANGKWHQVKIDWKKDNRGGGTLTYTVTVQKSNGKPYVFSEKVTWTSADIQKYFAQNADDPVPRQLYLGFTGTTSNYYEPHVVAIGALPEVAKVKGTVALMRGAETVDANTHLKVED

[2] = target: T1, lectin domain of LGR1_Llp1 (lectin-like protein 1); assay: pull-down with sugar-coated Sepharose 6B beads, SDS-PAGE; type: binding; conditions: sugar immobilised on beads; 25 mM MES, 25 mM NaCl, 1% polyvinylalcohol, 4 °C, 2 h; 100 μg/ml lectin domain

Row | Compound | mammalian glycan array v5.2 (CFG), FITC-labelled lectin domain [1] | pull-down with sugar-coated Sepharose 6B beads, SDS-PAGE [2]
1 | CC(=O)N[C@H]1[C@H](O[C@@H]2[C@H](O[C@]3(C(=O)O)C[C@H](O)[C@@H](NC(C)=O)[C@H]([C@H](O)[C@@H](CO)O[C@]4(C(=O)O)C[C@H](O)[C@@H](NC(C)=O)[C@H]([C@H](O)[C@H](O)CO)O4)O3)[C@@H](O)[C@H](O[C@H]3[C@H](O)[C@@H](O)[C@H](OCCN)O[C@@H]3CO)O[C@@H]2CO)O[C@H](CO)[C@H](O)[C@@H]1O[C@@H]1O[C@H](CO)[C@H](O)[C@H](O[C@]2(C(=O)O)C[C@H](O)[C@@H](NC(C)=O)[C@H]([C@H](O)[C@@H](CO)O[C@]3(C(=O)O)C[C@H](O)[C@@H](NC(C)=O)[C@H]([C@H](O)[C@H](O)CO)O3)O2)[C@H]1O [Neu5Acα2-8Neu5Acα2-3Galβ1-3GalNAcβ1-4(Neu5Acα2-8Neu5Acα2-3)Galβ1-4Glcβ-Sp0] | LGR1_Llp1 showed also a capacity to bind to the glycosphingolipid GQ1 receptor | 
2 | OC[C@H]1OC(O)[C@@H](O)[C@@H](O)[C@@H]1O (stereo partly drawn) [D-mannose] |  | The purified lectin domain of Llp1 showed the highest binding to mannan and mannose
